Consider 29 compounds from article PMC10763754 (Science Advances, 2021).

pEC50: −log10 of the molar value. “Also recorded” adds a separate entry of the source.

Chain of CDC34A-ubiquitin complex (P49427 whole entry, other chains not shown): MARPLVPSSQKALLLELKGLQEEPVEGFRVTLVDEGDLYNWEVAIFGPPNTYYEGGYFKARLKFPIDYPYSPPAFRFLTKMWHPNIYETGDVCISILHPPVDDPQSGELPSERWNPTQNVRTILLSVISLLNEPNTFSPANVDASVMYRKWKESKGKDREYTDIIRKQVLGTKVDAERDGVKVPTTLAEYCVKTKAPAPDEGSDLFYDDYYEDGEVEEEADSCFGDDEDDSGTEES

One test deals with CDC34A (Homo sapiens, UniProt P0CG48+P49427).
Chain of CDC34A (P49427 whole entry, other chains not shown): as above
Experiment: not given
The conditions noted are these: cited from earlier work.
As for `COCC(=O)N[C@@H](Cc1ccc(-c2cc(Cl)cc(Cl)c2)cc1)[C@H](O)[C@@H](O)C(=O)O` [CC0651], the “potency of CC0651 in vitro” value is on record as ~ 5 μM.

The next test has as its target CDC34A-ubiquitin complex (Homo sapiens, UniProt P0CG48+P49427). As to the kind of experiment: biochemical. It counts as binding.
Conditions: not given
Regarding `COCC(=O)N1CCC(Cc2ccc(-c3cc(Cl)cc(Cl)c3)cc2)(C(=O)NC(C)C)CC1` [2aa], the “fold improvement in TR-FRET potency compared to hit 1” value came to 27 fold.
Still for that read-out and setting: with `CCNC(=O)C1(Cc2ccc(-c3cc(Cl)cc(Cl)c3)cc2)CCN(C(=O)COC)CC1` [2ab] the figure was more than 80 fold.
Take `COCC(=O)N1CCC(Cc2ccc(-c3cc(Cl)cc(Cl)c3)cc2)(C(N)=O)CC1` [2ac]: the “activity in the TR-FRET assay (in words)” value is “lacked activity”.
For the compound `COCC(=O)N1CCC(Cc2ccc(-c3cc(Cl)cc(Cl)c3)cc2)(C(=O)NCCO)CC1` [2ai], the “activity in the TR-FRET assay (in words)” value is “abrogated activity; also recorded: complete loss of activity”.
Take `COCC(=O)N1CCC(Cc2ccc(-c3cc(Cl)cc(Cl)c3)cc2)(C(=O)NC[C@@H](C)O)CC1` [2at]: the “activity in the TR-FRET assay (in words)” value is “abrogated activity; also recorded: complete loss of activity”.
The same measure, in the same setting: with `COCC(=O)N1CCC(Cc2ccc(-c3cc(Cl)cc(Cl)c3)cc2)(C(=O)NC[C@@H](O)CO)CC1` [2au] the entry was “abrogated activity; also recorded: complete loss of activity”.
`CCNC(=O)C1(Cc2ccc(-c3cc(Cl)cc(Cl)c3)cc2)CCN(C(=O)OCC(C)C)CC1` [2db]: the “fold increase in TR-FRET potency relative to parent 2ab” value turned out to be 10 fold.
Turning to `COCC(=O)N1CCC(Cc2ccc(-c3cc(Cl)cc(Cl)c3)cc2)(NC(C)=O)CC1` [3a], the “activity in the TR-FRET assay (in words)” value is listed as “abolished TR-FRET activity”.
Same read-out and setting: with `CCC(=O)NC1(Cc2ccc(-c3cc(Cl)cc(Cl)c3)cc2)CCN(C(=O)COC)CC1` [3b] the entry was “abolished TR-FRET activity”.
Still for that read-out and setting: with `COCC(=O)N1CCC(Cc2ccc(-c3cc(Cl)cc(Cl)c3)cc2)(c2nnc(C)o2)CC1` [4a] the entry was “abolished activity”; with `Cc1nnc(C2(Cc3ccc(-c4cc(Cl)cc(Cl)c4)cc3)CCN(C(=O)COc3ccccc3)CC2)o1` [4b], “abolished activity”.
On to `COCC(=O)N1CCC(Cc2ccc(-c3cccc(C)c3)cc2)(C(=O)NC(C)C)CC1` [compound 1], for which the negative logarithm of the EC50 (pEC50) (usually the EC50 on a negative log10 scale, so that one unit is a factor of ten) was 3.49 and the “fold worse than CC0651 in the TR-FRET screen assay” value is on record as 10 fold.
Consider `COCC(=O)N1CCC(O)(c2ccc(-c3cc(Cl)cc(Cl)c3)cc2)CC1` [compound 6], for which the “activity in the TR-FRET assay (in words)” value is “completely inactive”.
Regarding `CCCCCN1CCC(Cc2ccc(-c3cc(Cl)cc(Cl)c3)cc2)(C(=O)OCC)CC1` [compound 7], the “activity in the TR-FRET assay (in words)” value is “complete abrogation of activity”.
On the same count and under the same terms, with `COCC(=O)N1CCC(Cc2ccc(-c3cc(Cl)cc(Cl)c3)cc2)(C(=O)O)CC1` [compound 12] the entry was “lacked activity”.

The same test, now with this note: TR-FRET EC50.
`COCC(=O)N1CCC(Cc2ccc(-c3cc(Cl)cc(Cl)c3)cc2)(C(=O)NC(C)C)CC1` [2aa] showed a pEC50 of 4.92.
Same read-out and setting: with `CCNC(=O)C1(Cc2ccc(-c3cc(Cl)cc(Cl)c3)cc2)CCN(C(=O)COC)CC1` [2ab] the figure was 5.40; with `CNC(=O)C1(Cc2ccc(-c3cc(Cl)cc(Cl)c3)cc2)CCN(C(=O)COC)CC1` [2ad], 4.70; with `CCCNC(=O)C1(Cc2ccc(-c3cc(Cl)cc(Cl)c3)cc2)CCN(C(=O)COC)CC1` [2ae], 5.40.
For `COCC(=O)N1CCC(Cc2ccc(-c3cc(Cl)cc(Cl)c3)cc2)(C(=O)NCC2CC2)CC1` [2ah], the pEC50 is 5.15.
In turn, `CCCCCNC(=O)C1(Cc2ccc(-c3cc(Cl)cc(Cl)c3)cc2)CCN(C(=O)COC)CC1` [2ak] gave a pEC50 of 4.59.
On the same count and under the same terms, with `COCC(=O)N1CCC(Cc2ccc(-c3cc(Cl)cc(Cl)c3)cc2)(C(=O)NC2CC2)CC1` [2al] the figure was 5.30.
`COCC(=O)N1CCC(Cc2ccc(-c3cc(Cl)cc(Cl)c3)cc2)(C(=O)NC(C)(C)C)CC1` [2as] showed a negative logarithm of the EC50 (pEC50) of 4.82.
On the same count and under the same terms, with `COCC(=O)N1CCC(Cc2ccc(-c3cc(Cl)cc(Cl)c3)cc2)(C(=O)N2CCCC2)CC1` [2aα] the figure was 5.52; with `COCC(=O)N1CCC(Cc2ccc(-c3cc(Cl)cc(Cl)c3)cc2)(C(=O)N2CCOCC2)CC1` [2aζ], 5.52.
Same read-out and setting: with `COCC(=O)N1CCC(Cc2ccc(-c3cc(Cl)cc(Cl)c3)cc2)(C(=O)N2CCCCC2)CC1` [2aη] the figure was 6.00.
In turn, `CCNC(=O)C1(Cc2ccc(-c3cc(Cl)cc(Cl)c3)cc2)CCN(C(=O)CCOC)CC1` [2cb] had a pEC50 of 5.70.
On the same count and under the same terms, with `CCNC(=O)C1(Cc2ccc(-c3cc(Cl)cc(Cl)c3)cc2)CCN(C(=O)OCC(C)C)CC1` [2db] the figure was 6.40; with `CCNC(=O)C1(Cc2ccc(-c3cc(Cl)cc(Cl)c3)cc2)CCN(C(=O)[C@H]2CCCO2)CC1` [2eb], 4.64 to 4.77; with `CCNC(=O)C1(Cc2ccc(-c3cc(Cl)cc(Cl)c3)cc2)CCN(C(=O)[C@@H]2CCCO2)CC1` [2fb], 4.64 to 4.77.
The compound `CCNC(=O)C1(Cc2ccc(-c3cc(Cl)cc(Cl)c3)cc2)CCN(C(=O)c2ccccc2)CC1` [2gb] showed a negative logarithm of the EC50 (pEC50) of 5.70.
